Assays:
HIV-1 proviral DNA = test: Nested PCR of integrated proviral DNA in infected Jurkat cells; assay type: cell-based; details: HIV-1 NL4-3 MOI 0.5, 12 h post-infection, 118-D-24 50 μM, flavopiridol 20 nM, triptolide 5 nM
Experimental: The effects of the test compounds on HIV-1 proviral DNA and mRNA synthesis were analyzed by PCR. Jurkat cells were grown in 24-well plates and infected with the HIV-1 NL4-3 strain at an MOI of 0.5, and then test compounds were added at the desired concentrations. After incubation for 12 h, genomic DNA and mRNA from the infected cells were isolated using a Genomic DNA Mini Preparation Kit (Beyotime, China) and TRIzol reagent (Invitrogen Life Technologies), respectively. Nested PCR was used for the amplification of integrated proviral DNA, as previously described. To determine viral mRNA expression levels, 1 μg of RNA was treated with RQ1 RNase-Free DNase (Promega) and reverse transcribed using M-MLV Reverse Transcriptase (Promega) and random primers (Promega). An aliquot of cDNA was used as template for amplification of the HIV-1 Gag region as described elsewhere. […]
All of the PCR products were visualized on a UV transilluminator in 2% agarose gels stained with ethidium bromide. In preliminary experiments, the exponential range of the PCR amplification curve was determined for all of the PCR products by varying the amount of input DNA and the number of PCR cycles. Based on these experiments, appropriate conditions were chosen to perform semi-quantitative PCRs.

Tat-GFP fusion protein = test: Western blot of Tat-GFP fusion proteins in HeLa cells; assay type: cell-based; details: 48 h
Experimental: Figure 5 Triptolide specifically reduces steady-state level of Tat protein. (A) HeLa cells were transfected with pEF1-FLAG-Tat in the presence of increasing concentrations of triptolide. Cells were harvested 48 h post-transfection, and protein expression levels were determined by Western blotting. (B) HeLa cells were transfected either with pEF1-GFP (left) or pEF1-Tat-GFP (right) in the presence of increasing concentrations of triptolide. Cells were harvested 48 h post-transfection, and protein expression levels were determined by Western blotting.
Figure 7 N-terminal domains are required for triptolide to reduce Tat steady-state levels. (A) Schematic diagram of domains of HIV-1 Tat. (B) The effects of triptolide on steady-state levels of Tat mutants. […] Cells were harvested 48 h post-transfection, and protein expression levels were determined by Western blotting. […] Cells were harvested 48 h post-transfection, and protein expression levels were determined by Western blotting. […] At 48 h post transfection, the nucleus and cytoplasm were fractionated using NE-PER nuclear and cytoplasmic extraction reagent, and protein expression levels were determined by Western blotting. […] Cells were harvested 48 h post-transfection, and protein expression levels were determined by Western blotting. […]

Structure (SMILES): CC(C)[C@]12O[C@H]1[C@@H]1O[C@]13[C@]1(O[C@H]1C[C@H]1C4=C(CC[C@@]13C)C(=O)OC4)[C@@H]2O [triptolide]
- effect on proviral DNA formation (integration) (HIV-1 proviral DNA): no effect on virus integration
- activity on fusion protein of Tat basic domain with GFP (Tat49–57-GFP) (Tat-GFP fusion protein; pEF1-Tat49–57-GFP): not sufficient to mediate the susceptibility to triptolide
- steady-state level of Tat-GFP (Tat-GFP fusion protein; pEF1-Tat-GFP): reduced the steady-state levels of Tat-GFP dose-dependently

Source: paper PMC4205289, “Triptolide inhibits human immunodeficiency virus type 1 replication by promoting proteasomal degradation of Tat protein” (Retrovirology, 2014)
